Entries after “also recorded” stand apart in the source; their conditions may differ.
Tests used:
SU-DIPG-XIII FL cells [1] = test: shRNA-expressing lentivirus injected into the SVZ of orthotopically xenografted mice; format: in vivo, NSG mice; conditions: vs scrambled shRNA control; for DIPG cells invading the SVZ: 16 weeks following pontine xenograft
Description: (§1) NSG mice at age P34-36 were orthotopically xenografted with SU-DIPG-XIII frontal lobe CMV-GFP-luciferase cells, in a similar procedure to as previously described (Grasso et al., supra; Venkatesh et al. (2015) Cell 161, 803-816). Briefly, a single-cell suspension of SU-DIPG-XIII frontal lobe CMV-GFP-luciferase cells at passage 16-19 was prepared in sterile HBSS immediately before beginning the xenograft procedure. 600,000 cells in 3 μL were stereotactically injected into the pons of the left hemisphere of NSG mice, through a 31-gauge burr hole. Stereotactic coordinates used were: 1 mm lateral to midline, 0.8 mm posterior to lambda suture, and 5 mm deep. Cells were injected at a rate of 0.4 μL/min using a digital pump and a 31-gauge Hamilton syringe. After infusion of cells, the syringe needle was kept in place for 2 minutes, and then withdrawn manually at a rate of 0.875 mm/min to minimize the backflow of cells.
(§2) Mice used for shRNA lentivirus studies received shRNA-expressing lentivirus in the SVZ at P27-29 and DIPG cells in the left pons at P34-36. For lentiviral injections, 2 μL of shRNA-expressing lentivirus were stereotactically injected into the SVZ. Stereotactic coordinates used were: 1.3 mm lateral to midline, 0.1 mm posterior to bregma suture, and 2 mm deep. Virus was injected and the needle was withdrawn according to the same procedure as described above.
(§3) Mice were imaged using an IVIS Spectrum to ensure tumor engraftment and monitor tumor size. Mice were anesthetized under 1% isoflurane, intraperitoneally injected with luciferin (15 mg/kg), and imaged for bioluminescence every minute until the peak total flux was reached.
For quantification of DIPG invasion of the SVZ after knock down of targets in the SVZ, 5 NSG mice per group were injected with shRNA-expressing lentivirus in bilateral SVZs and orthotopically xenografted with SU-DIPG-XIII FL in the left pons. Mice were perfused for analysis 16 weeks after xenograft. A 1:6 series of coronal slices from each mouse brain was immunostained and imaged, and the number of GFP^+ HNA^+ glioma cells within 200 μm of the lateral ventricles in all slices containing lateral ventricles was manually counted.
For quantification of neural stem/precursor cells in the SVZ after knock down of PTN in the SVZ, a 1:6 series of coronal slices from each mouse was immunostained and imaged, and the number of Sox2^+ neural stem/precursor cells in a 20×Z-stack was manually counted. The density of Sox2^+ cells was calculated as cells/mm^3.

HSP90B = test: Knockdown of HSP90B expression in the mouse SVZ; format: in vivo; conditions: lentivirus injected into the SVZ; vs scrambled shRNA control
Description: as §2
Mice were intraperitoneally injected with Avertin (tribromoethanol) for anesthesia, and then transcardially perfused with 20 mL of ice-cold PBS. Brains were dissected out and fixed in 4% paraformaldehyde in PBS overnight at 4° C., and were then transferred to 30% sucrose in PBS for cryoprotection. Brains were embedded in Tissue-Tek O.C.T. (Sakura, Torrance, Calif.). Brains from mice older than P10 were sliced into 40 μm coronal or sagittal sections using a sliding microtome (Microm HM450; Thermo Scientific, Waltham, Mass.). Brains from mice age P0 to P10 were sliced into 25 μm coronal sections using a cryostat (Leica Biosystems CM3050 S; 1058 Wetzlar, Germany). For immunohistochemistry, a 1 in 6 series of 25 μm or 40 μm sections was incubated in blocking solution (3% normal donkey serum, 0.3% Triton X-100 in TBS) at room temperature for 1 hour. […]

SU-DIPG-XIII FL cells [2] = test: Orthotopic xenograft of PTPRZ1 knockdown DIPG cells; format: in vivo, NSG mice; conditions: knockdown cells xenografted to the pons, vs scrambled shRNA control cells; for DIPG cells invading the SVZ: 8 weeks following xenograft
Description: as §1, §3
(§4) For lentiviral infection, DIPG cells or neural precursor cells were exposed to shRNA-expressing lentivirus for 16 hours. Puromycin was added 48 hours after infection to select for virally infected cells. After removal of puromycin, shRNA-treated neural precursor cells were grown for 7 days (with addition of media on day 3-4) for generation of conditioned media. After removal of puromycin, shRNA-treated DIPG cells were grown for at least one passage before experimental use.

SU-DIPG-XIII FL cells [3] = test: CellTiter-Glo cell viability assay; format: cell-based, human; conditions: base media without growth factors, vs scrambled control or no shRNA
Description: To assess cell viability, 5,000 DIPG cells per well were seeded in base media or full growth media in a 96-well plate. Inhibitors were added at the appropriate concentrations. After 72 hours, CellTiter-Glo reagent 2.0 was added at a 1:1 ratio, and cells were lysed. Luminescence was measured after stabilization of signal for 10 minutes at room temperature.

RhoA = test: G-LISA RhoA activation assay in DIPG cells; format: cell-based, human; conditions: DIPG cells expressing the shRNA exposed to SVZ hNPC CM or the PTN complex; vs scrambled shRNA
Description: (§5) SU-DIPG-XIII frontal lobe cells were starved in TSM base (without B27 (−A) supplement, heparin, or growth factors) for 48 hours prior to treatment. After treatment, cells were lysed in the RhoA activation assay kit cell lysis buffer (Cytoskeleton, Denver, Colo.). Lysates were incubated on ice for 1 minute, clarified by centrifugation at 10,000×g, 4° C. for 1 minute, and the supernatants were snap-frozen and stored immediately at −80° C. Protein concentrations were measured by the BCA protein assay (Thermo Scientific, Waltham, Mass.), and samples were diluted to 0.5 mg/mL by the addition of cell lysis buffer.
RhoA activation assays were performed using the G-LISA RhoA absorbance-based activation assay (Cytoskeleton, Denver, Colo.). Lysate samples were incubated in a 96-well plate with pre-linked Rho GTP-binding protein for 30 minutes at 4° C. shaking at 400 rpm. Wells were incubated in anti-RhoA primary antibody (1:250) at room temperature for 45 minutes shaking at 400 rpm. Secondary HRP-labeled antibody (1:62.5) was added at room temperature for 45 minutes shaking at 400 rpm. Results were visualized by addition of HRP detection reagents for 12 minutes at 37° C., and the absorbance was read at 490 nm. All assays were performed in triplicate.

PTPRZ1 = test: Knockdown of PTPRZ1 in DIPG cells (qPCR, Western blot); format: cell-based, human; conditions: vs scrambled shRNA control or no shRNA; for PTPRZ1 gene expression: qPCR
Description: Samples were run on Bio-Rad Mini-Protean TGX precast gels (Bio-Rad, Hercules, Calif.), and the protein was transferred onto polyvinylidene fluoride (PVDF) membranes. Membranes were blocked with 5% bovine serum albumin (BSA) in TBST for 1 hour, and incubated in primary antibodies diluted in 1% BSA/TBST overnight at 4° C. Primary antibodies used were: mouse anti-pleiotrophin (1:100; Santa Cruz Biotechnology, Santa Cruz, Calif.), goat anti-SPARC (1:100; R&D Systems, Minneapolis, Minn.), goat anti-SPARCL1 ([…]; R&D Systems, Minneapolis, Minn.), rabbit anti-HSP90B (GeneTex, Irvine, Calif.), rabbit anti-GRP78 (1:500, Abcam, Cambridge, Mass.), rabbit anti-PTPRZ (Thermo Fisher, Waltham, Mass.), and rabbit beta-actin (1:2000; Cell Signaling, Danvers, Mass.). Secondary antibodies conjugated to horseradish peroxidase (HRP) were added for 1 hour at room temperature. Secondary antibodies used were: goat anti-rabbit IgG-HRP (Cell Signaling, Danvers, Mass.), horse anti-mouse IgG-HRP (Cell Signaling, Danvers, Mass.), and donkey anti-goat IgG-HRP (Santa Cruz Biotechnology, Santa Cruz, Calif.). Proteins were visualized using Clarity Western ECL Substrate (Bio-Rad, Hercules, Calif.).
Cells or tissue were lysed and homogenized in TRIzol Reagent (Life Technologies, Carlsbad, Calif.) and RNA was extracted according to reagent protocol. RNA was treated with dsDNase, and cDNA was synthesized using Thermo Scientific Maxima First Strand cDNA Synthesis Kit for RT-qPCR with dsDNase (Thermo Fisher Scientific K1671). RT-PCR was performed on Eppendorf Mastercycler Realplex2 using Universal SYBR Green Supermix (BioRad, Hercules, Calif.). Differential expression was determined using the deltaCt method. Primers used were as follows: […]
as §4, with “After removal of puromycin, shRNA-treated DIPG cells were grown for at least one passage before experimental use.” left out

ROCK = test: Rho-associated kinase (ROCK) activity assay in DIPG cells; format: cell-based, human; conditions: DIPG cells expressing the shRNA exposed to SVZ hNPC CM or the PTN complex; vs scrambled shRNA
Description: as §5
ROCK activation assays were performed using the Rho-associated kinase (ROCK) activity assay (Millipore, Bedford, Mass.). Cell lysates were incubated in wells of a myosin phosphatase target subunit 1 (MYPT1) pre-coated 96-well plate, for 30 minutes at 30° C. with moderate shaking. Wells were incubated in anti-phospho-MYPT1(Thr696) primary antibody (1:1000) for 1 hour with moderate shaking. Goat anti-rabbit IgG HRP secondary antibody (1:2000) was added for 1 hour with moderate shaking. Results were visualized with TMB/E substrate, incubating in the dark for 10 minutes, and absorbance was read at 450 nm. All assays were performed in triplicate.

SU-DIPG-XIII FL cells [4] = test: Matrigel invasion assay (Boyden chamber) of DIPG cells; format: cell-based, human; conditions: DIPG cells expressing the shRNA; for DIPG invasion toward SVZ hNPC CM or the PTN complex: vs scrambled control; for baseline DIPG invasion toward unconditioned hNPC media: vs scrambled shRNA
Description: To test for chemoattraction and invasion toward neural precursor cell conditioned media or another candidate chemoattractant, a single-cell suspension of 100,000 DIPG cells in Tumor Stem Media (TSM) base (with B27 (−A) and heparin, without growth factors) was seeded in the top inserts of BioCoat growth factor reduced Matrigel invasion chambers (Corning, Bedford, Mass.), after rehydration of the inserts. Chemoattractant media was added to the bottom of the chamber. All conditions were plated in triplicate. After 72 hours, media was aspirated, and the non-invading cells on top of the layer of Matrigel were scrubbed off. The invading cells were fixed in 4% paraformaldehyde and then stained with 0.1% crystal violet in 10% methanol in distilled water. The number of invading cells was quantified by the intensity of the crystal violet dye on the invading side of the Matrigel. The dye was collected in 10% acetic acid, and absorbance was measured at 595 nm.
To test the ROCK or HSP90 inhibitors in the Matrigel invasion assay, the inhibitors were added to the suspension of glioma cells in TSM base (with B27 (−A) and heparin) seeded in the top inserts at the appropriate concentrations, and neural precursor cell conditioned media was plated in the bottom chambers. The rest of the procedure was performed as described above.

[5] = listed as shRNA-expressing lentivirus targeting the HSP90B1 gene
[6] = listed as shRNA lentivirus targeting PTPRZ1

| Substance | DIPG cells invading the SVZ (SU-DIPG-XIII FL cells [1]) | DIPG cells invading the SVZ (SU-DIPG-XIII FL cells [1]; [5]) | tumor engraftment (bioluminescent flux) (SU-DIPG-XIII FL cells [1]; listed as shRNA lentivirus targeting HSP90B1) | tumor engraftment (bioluminescent flux) (SU-DIPG-XIII FL cells [1]; [5]) | HSP90B expression in the SVZ (HSP90B) | DIPG cells invading the SVZ (SU-DIPG-XIII FL cells [2]) | DIPG cells invading the SVZ (SU-DIPG-XIII FL cells [2]; [6]) | decrease of total tumor size (engraftment), bioluminescent signal on initial IVIS imaging (SU-DIPG-XIII FL cells [2]) [fold] | tumor growth over time (SU-DIPG-XIII FL cells [2]) | cell viability of DIPG cells expressing the shRNA (SU-DIPG-XIII FL cells [3]) | cell viability of DIPG cells expressing the shRNA (SU-DIPG-XIII FL cells [3]; [6]) | RhoA activation (RhoA) | PTPRZ protein levels (PTPRZ1; Western blot) | PTPRZ1 gene expression (PTPRZ1) | PTPRZ1 gene expression (PTPRZ1; [6]) | ROCK activation (ROCK) | DIPG invasion toward SVZ hNPC CM or the PTN complex (SU-DIPG-XIII FL cells [4]) | DIPG invasion toward SVZ hNPC CM or the PTN complex (SU-DIPG-XIII FL cells [4]; [6]) | baseline DIPG invasion toward unconditioned hNPC media (SU-DIPG-XIII FL cells [4]) | baseline DIPG invasion toward unconditioned hNPC media (SU-DIPG-XIII FL cells [4]; [6]) |
| --- | --- | --- | --- | --- | --- | --- | --- | --- | --- | --- | --- | --- | --- | --- | --- | --- | --- | --- | --- | --- |
| sh-HSP90B1: lentivirus-expressed shRNA against mouse HSP90B1, Sigma TRCN0000071925, SEQ ID NO: 12 (CCGGGCTATTCAGTTGGATGGGTTACTCGAGTAACCCATCCAACTGAATAGCTTTTTG) | fewer orthotopically xenografted GFP^+ HNA^+ SU-DIPG-XIII FL cells invaded the SVZ | fewer DIPG cells invading the SVZ | equivalent | no effect on initial tumor engraftment | low HSP90B expression after knockdown | – | – | – | – | – | – | – | – | – | – | – | – | – | – | – |
| PTPRZ1 shRNA: lentivirus-expressed shRNA against human PTPRZ1, Sigma TRCN0000356374, SEQ ID NO: 13 (CCGGATACCTAAGTCTTCGTTAATACTCGAGTATTAACGAAGACTTAGGTATTTTTTG) | – | – | – | – | – | significantly fewer cells expressing PTPRZ1 shRNA reached the SVZ | fewer DIPG cells with knockdown of PTPRZ1 invaded the SVZ | 10 | rate of growth was similar | mildly decreases cell viability | mild decrease in cell viability | abrogation of RhoA and ROCK activation; also recorded: decreased activation of RhoA and ROCK | effective knock down | Robust shRNA-mediated knockdown of PTPRZ1 expression | effective knock down of PTPRZ1 gene expression | abrogation of RhoA and ROCK activation; also recorded: decreased activation of RhoA and ROCK | partial abrogation of invasion | partially abrogates DIPG invasion | substantially decreases baseline invasion | decrease in baseline DIPG invasion |
